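Five concentrations, 48 hours, 96-well plates. GI50 marks 50% less growth.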 Active and inactive are the calls of the source. Cut-off read from the data, not from the text of the source: active = GI50 up to about 1.1 µM and inactive = higher.
What was measured:
Assay in all cases: inhibition of tumour cell growth, NCI panel, 48 h
[1] = system: OVCAR-4
[2] = system: KM12
[3] = system: SN12C
[4] = system: COLO 205
[5] = system: HOP-62
[6] = system: SW-620
[7] = system: A549
[8] = system: NCI-H23
[9] = system: NCI/ADR-RES
[10] = system: Malme-3M
[11] = system: HOP-18
[12] = system: K562
[13] = system: ACHN
[14] = system: LOX IMVI
[15] = system: HL-60
[16] = system: NCI-H460
[17] = system: EKVX
[18] = system: CAKI-1
[19] = system: UACC-257
[20] = system: HOP-92

SMILES	GI50 [1]	GI50 [2]	GI50 [3]	GI50 [4]	GI50 [5]	GI50 [6]	GI50 [7]	GI50 [8]	GI50 [9]	GI50 [10]	GI50 [11]	GI50 [12]	GI50 [13]	GI50 [14]	GI50 [15]	GI50 [16]	GI50 [17]	GI50 [18]	GI50 [19]	GI50 [20]
O=Cc1ccc(-c2ccc(-c3ccc(C=O)s3)o2)s1	2.79 µM (inactive)	> 100 µM (inactive)	97.9 µM (inactive)	18.7 µM (inactive)	8.63 µM (inactive)	> 80.7 µM (inactive)	> 81.7 µM (inactive)	> 100 µM (inactive)	61.5 µM (inactive)	> 100 µM (inactive)	> 100 µM (inactive)	28.2 µM (inactive)	> 100 µM (inactive)	> 100 µM (inactive)	> 100 µM (inactive)	1.91 µM (inactive)	> 53.3 µM (inactive)	0.418 µM (active)	2.61 µM (inactive)	> 89.3 µM (inactive)
CCCCCCCCCCCC[S+](C)C	6.07 µM (inactive)	3.36 µM (inactive)	3.88 µM (inactive)	1.29 µM (inactive)	0.665 µM (active)	9.23 µM (inactive)	11.5 µM (inactive)	4.48 µM (inactive)	> 44.1 µM (inactive)	8.38 µM (inactive)	4.97 µM (inactive)	3.48 µM (inactive)	4.56 µM (inactive)	2.86 µM (inactive)	3.01 µM (inactive)	9.4 µM (inactive)	4.83 µM (inactive)	1.57 µM (inactive)	4.18 µM (inactive)	1.63 µM (inactive)

— ChEMBL document CHEMBL1201862, “PubChem BioAssay data set” (2004)
